From patent publication US12084462B2, “Spiro bicyclic inhibitors of menin-MLL interaction” (Janssen Pharmaceutica NV, priority 2016, dated 2024)
Where “and” joins values, the source holds several entries; their conditions need not be identical. Equal entries are not always repeated. Where two headings read alike, the source gives them in different places.

Columns and labels:
MOLM14 = assay: Proliferation assay (spheroid assay) MOLM14; format: cell-based, human
Procedure: (§1) The anti-proliferative effect of menin/MLL protein/protein interaction inhibitor test compounds was assessed in human leukemia cell lines. The cell lines MV-4-11 and MOLM14 harbor MLL translocations and express the MLL fusion proteins MLL-AF4 and MLL-AF9, respectively, as well as the wildtype protein from the second allele. […] K562 and KG1 were used as a control cell lines containing two MLL wildtype alleles in order to exclude compounds that display general cytotoxic effects.
(§2) MV-4-11 and MOLM14 were cultured in RPMI-1640 (Sigma Aldrich) supplemented with 10% fetal bovine serum (HyClone), 2 mM L-glutamine (Sigma Aldrich) and 50 μg/ml gentamycin (Gibco). K562 were propagated in RPMI-1640 (Sigma Aldrich) supplemented with 20% fetal bovine serum (HyClone), 2 mM L-glutamine (Sigma Aldrich) and 50 μg/ml gentamycin (Gibco). KG1 were cultured in Iscove's MDM (Gibco) supplemented with 20% fetal bovine serum (HyClone), 2 mM L-glutamine (Sigma Aldrich) and 50 μg/ml gentamycin (Gibco).
(§3) In order to assess the anti-proliferative effects, 1,500 MV-4-11, 300 MOLM14, 750 K562 or 1,300 KG1 cells were seeded in 200 μl media per well in 96-well round bottom, ultra-low attachment plates (Costar, catalogue number 7007). Cell seeding numbers were chosen based on growth curves to ensure linear growth throughout the experiment. Test compounds were added at different concentrations and the DMSO content was normalized to 0.3%. Cells were incubated for 8 d at 37° C. and 5% CO2. Spheroid like growth was monitored in real-time by live-cell imaging (IncuCyteZOOM, Essenbio, 4× objective) acquiring one image every four hours for 8 d. Confluence (%) as a measure of spheroid size was determined using an integrated analysis tool.
(§4) In order to determine the cumulative effect of the test compounds over time, the area under the curve (AUC) in a plot of confluence against time was calculated. Confluence at the beginning of the experiment (t=0) was used as baseline for the AUC calculation.
(§5) Absolute IC50 values were calculated according to the following procedure: % Control=(AUC sample/AUC control)*100 AUC control=mean AUC of control values (cells without compound/DMSO as vehicle control)
(§6) A non-linear curve fit was applied using the least squares (ordinary) fit method to the plot of % control versus compound concentration. Based on this, the absolute IC50 value (half maximal inhibitory concentration of the test compound causing an anti-proliferative effect of 50% relative to the vehicle control) was calculated.

MV-4-11 = assay: Proliferation assay (spheroid assay) MV-4-11; format: cell-based, human
Method in brief: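 Cells grown as spheroids in ultra-low attachment round-bottom wells with compound at varied concentrations (0.3% DMSO) for 8 d at 37 °C; confluence imaged every 4 h. AUC of confluence over time (t=0 baseline) expressed as % of vehicle control; absolute IC50 from nonlinear least-squares fit.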

KG1 = assay: Proliferation assay (spheroid assay) KG1, control cell line; format: cell-based; conditions: Homo sapiens
Procedure: as §1, §2, §3, §4, §5, §6

K562 = assay: Proliferation assay (spheroid assay) K562, control cell line; format: cell-based; conditions: Homo sapiens
Procedure: as §1, §2, §3, §4, §5, §6

menin = target: T1, menin (Homo sapiens, UniProt O00255, T541A); assay: Menin/MLL fluorescence polarization (FP) assay; format: binding
T1 sequence (O00255 with tags, fused parts or gaps T541A): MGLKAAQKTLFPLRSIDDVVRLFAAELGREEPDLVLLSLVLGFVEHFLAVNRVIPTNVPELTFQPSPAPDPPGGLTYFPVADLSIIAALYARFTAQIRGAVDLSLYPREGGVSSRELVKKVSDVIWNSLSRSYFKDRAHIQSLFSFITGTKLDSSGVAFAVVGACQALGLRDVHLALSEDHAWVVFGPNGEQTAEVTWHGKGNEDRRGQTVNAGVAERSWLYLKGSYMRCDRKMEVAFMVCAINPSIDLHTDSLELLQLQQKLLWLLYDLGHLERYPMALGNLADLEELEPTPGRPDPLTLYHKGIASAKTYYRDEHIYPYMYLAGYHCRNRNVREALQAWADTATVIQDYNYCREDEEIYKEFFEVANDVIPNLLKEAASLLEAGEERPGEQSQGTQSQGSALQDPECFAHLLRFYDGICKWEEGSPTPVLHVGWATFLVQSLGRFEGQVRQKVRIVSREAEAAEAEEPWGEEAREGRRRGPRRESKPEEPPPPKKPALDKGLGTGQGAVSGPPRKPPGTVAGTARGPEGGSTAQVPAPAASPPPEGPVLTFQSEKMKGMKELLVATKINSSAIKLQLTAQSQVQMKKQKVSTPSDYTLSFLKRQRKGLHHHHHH
Procedure: 1) Menin/MLL Fluorescence Polarization Assay
To a non-surface binding, black 384-well microtiter plate was added 50 nL 160× test compound in DMSO and 4 μL 2× menin in assay buffer (40 mM Tris·HCl, pH 7.5, 50 mM NaCl, 1 mM DTT and 0.001% Tween 20). After incubation of test compound and menin for 10 min at ambient temperature, 4 μL 2×FITC-MBM1 peptide (FITC-β-alanine-SARWRFPARPGT-NH2 (SEQ ID NO: 2)) in assay buffer was added, the microtiter plate centrifuged at 1000 rpm for 1 min and the assay mixtures incubated for 15 min at ambient temperature. The relative amount of menin·FITC-MBM1 complex present in an assay mixture is determined by measuring the fluorescence polarization (FP) of the FITC label with a BMG Pherastar plate reader (ex. 485 nm/em. 520 nm) at ambient temperature. The final concentrations of reagents in the binding assay are 100 nM menin, 5 nM FITC-MBM1 peptide and 0.625% DMSO in assay buffer. Dose-response titrations of test compounds are conducted using an 11 point, three-fold serial dilution scheme, starting at 31 μM.
Compound potencies were determined by first calculating % inhibition at each compound concentration according to equation 1: % inhibition=((HC−LC)−(FP^compound−LC))/(HC−LC))*100 (Eqn 1)
Where LC and HC are the FP values of the assay in the presence or absence of a saturating concentration of a compound that competes with FITC-MBM1 for binding to menin, and FP^compound is the measured FP value in the presence of the test compound. HC and LC FP values represent an average of at least 16 replicates per plate. […] 2) Proliferation Assay

[1] = Homo sapiens, MOLM-14, MOLM14, averaged values, read-out: Spheroid assay MOLM14 (IC50 (μM))
[2] = Homo sapiens, MV4-11, MV-4-11, averaged values, read-out: Spheroid assay MV-4-11 (IC50 (μM))
[3] = KG-1, KG1 control cell line, averaged values, read-out: Spheroid assay KG1 (IC50 (μM))
[4] = Homo sapiens, MOLM-14, 192 h, MOLM14 (MLL-AF9), 8 d, absolute IC50 from AUC of confluence, individual measurements (not averaged), read-out: (2) Spheroid assay MOLM14 (IC50 (μM))
[5] = MOLM14 (MLL-AF9), 8 d, absolute IC50 from AUC of confluence, individual measurements (not averaged), read-out: (2) Spheroid assay MOLM14 (IC50 (μM))
[6] = 192 h, K562 (MLL wildtype control), 8 d, absolute IC50 from AUC of confluence, individual measurements (not averaged), read-out: (2) Spheroid assay K562 (IC50 (μM))
[7] = 100 nM menin, 5 nM FITC-MBM1 peptide, individual measurements (not averaged), read-out: (1) Menin FP assay (IC50 (μM))
[8] = MV-4-11 (MLL-AF4), 8 d, absolute IC50 from AUC of confluence, individual measurements (not averaged), read-out: (2) Spheroid assay MV-4-11 (IC50 (μM))
[9] = K562 control cell line, averaged values, read-out: Spheroid assay K562 (IC50 (μM))
[10] = averaged values over all measurements, read-out: Menin FP assay (IC50 (μM))

SMILES	IC50 (MOLM14; [1]) [µM]	IC50 (MV-4-11; [2]) [µM]	IC50 (KG1; [3]) [µM]	other results
CC(C1CCOCC1)N1CC2(CCN(c3ncnc4sc(CC(F)(F)F)cc34)C2)C1 (single isomer, unassigned) [Compound 155]	1.2	0.7	> 15	–
CC(C)[C@@H](c1cnn(C)c1)N1CC[C@]2(CCN(c3ncnc4sc(CC(F)(F)F)cc34)C2)C1 (single isomer, unassigned) [Compound 189]	–	0.92	> 15	–
Fc1ccc(CN2CC[C@]3(CCN(c4ncnc5sc(CC(F)(F)F)cc45)C3)C2)cc1 (single isomer, unassigned) [Compound 291]	1.2	0.66	> 15	–
Fc1ccc(CN2CC[C@@]3(CCN(c4ncnc5sc(CC(F)(F)F)cc45)C3)C2)cc1 (single isomer, unassigned) [Compound 292]	1.5	0.29	> 15	–
FC(F)(F)Cc1cc2c(N3CC4(CCN(Cc5ccccc5)C4)C3)ncnc2s1 [Compound 16]	–	–	–	IC50 (MOLM14; [4]): 9.3 µM; IC50 (MOLM14; [5]): 8.7 µM; IC50 (K562; [6]): > 15 µM; IC50 (menin; [7]): 0.134 µM; IC50 (MV-4-11; [8]): 4.7 µM and > 15 µM
N#Cc1cc2cc(CN3CC4(CCN(c5ncnc6sc(CC(F)(F)F)cc56)C4)C3)ccc2[nH]1 [Compound 17]	–	–	–	IC50 (MOLM14; [4]): 3.4 µM; IC50 (MOLM14; [5]): 2.3 µM; IC50 (menin; [7]): 0.054 µM; IC50 (MV-4-11; [8]): 4.9 µM and 0.76 µM and 0.84 µM; IC50 (KG1; KG-1, 192 h, KG1 (MLL wildtype control), 8 d, absolute IC50 from AUC of confluence, individual measurements (not averaged), read-out: (2) Spheroid assay KG1 (IC50 (μM))): 11 µM
FC(F)(F)Cc1cc2c(N3CCC4(CN(CC5CC6(CCC6)C5)C4)C3)ncnc2s1 [Compound 22]	2	0.55	–	IC50 (K562; [9]): > 15 µM; IC50 (menin; [10]): 0.069 µM
CC(C)C(c1cnn(CCO)c1)N1CC2(CCN(c3ncnc4sc(CC(F)(F)F)cc34)C2)C1 (stereo not shown) [Compound 62]	4	0.64	> 15	–
CC(Cc1ccc(F)cc1)N1CC2(CCN(c3ncnc4sc(CC(F)(F)F)cc34)C2)C1 (stereo not shown) [Compound 84]	1.5	0.58	> 15	–
O=C([C@@H]1CC2(CC2)CN1)N1CC2(CCN(c3ncnc4sc(CC(F)(F)F)cc34)C2)C1 [Compound 86]	11.3	2.6	–	IC50 (K562; [9]): > 15 µM; IC50 (menin; [10]): 0.092 µM
O=C([C@@H]1CC2(CC2)CN1)N1CC2(C1)CN(c1ncnc3sc(CC(F)(F)F)cc13)C2 [Compound 87]	–	–	–	IC50 (MOLM14; [5]): 8 µM and 2.8 µM and 4.6 µM; IC50 (K562; [6]): > 15 µM; IC50 (menin; [7]): 0.048 µM; IC50 (MV-4-11; [8]): 4.1 µM and 0.63 µM and 0.58 µM and 0.68 µM and 0.52 µM
CC(C)C(Cc1ccccc1)N1CC2(CCN(c3ncnc4sc(CC(F)(F)F)cc34)C2)C1 (stereo not shown) [Compound 182]	1.9	0.78	> 15	–
CC(C)CN1CC[C@@]2(CCN(c3ncnc4sc(CC(F)(F)F)cc34)C2)C1 [Compound 184]	–	0.97	> 15	–
CC(C)C(c1cnn(C(C)C)c1)N1CC2(CCN(c3ncnc4sc(CC(F)(F)F)cc34)C2)C1 (stereo not shown) [Compound 214]	1.4	0.76	> 15	–
CC(C)[C@@H](c1cn[nH]c1)N1CC2(CCN(c3ncnc4sc(CC(F)(F)F)cc34)C2)C1 [Compound 245]	2	0.32	> 15	–
CC(C)C(N1CC2(CCN(c3ncnc4sc(CC(F)(F)F)cc34)C2)C1)C1(F)CNC1 (stereo not shown) [Compound 269]	4.6	0.67	> 15	–
CC(C)[C@@H](N1CC2(CCN(c3ncnc4sc(CC(F)(F)F)cc34)C2)C1)C1(F)CN(C)C1 [Compound 304a]	1.3	0.44	> 15	–
CC(C)C(CC1CCNCC1)N1CC2(CCN(c3ncnc4sc(CC(F)(F)F)cc34)C2)C1 (stereo not shown) [Compound 315]	1.5	0.32	> 15	–
CC(C)C(CC1CCN(C)CC1)N1CC2(CCN(c3ncnc4sc(CC(F)(F)F)cc34)C2)C1 (stereo not shown) [Compound 316]	0.96	0.4	> 3.7	–
CC(CN1CC2(CCN(c3ncnc4sc(CC(F)(F)F)cc34)C2)C1)c1ccc(F)cc1 (stereo not shown) [Compound 317]	–	0.77	> 15	–
